Test results taken from patent US20260315487A1, “IKK-ALPHA INHIBITORS” (Cancer Research Technology Limited, priority 2023, published 2026).

Assay: in vivo murine PK in CD1 mice
Parameters: species or system mouse
Conditions: 10 mg/kg, mean
Protocol: […] Prior formulation/solubility assessment was performed in routine excipients e.g., DMSO: cyclodextrin or HMPC/Tween 80 . Intravenous time points were taken at 5 min, 15 min, 30 min, 1, 2, 4, 8, and 24 hours and intraperitoneal time points were taken at 15 min, 30 min, 1, 2, 4, 6, 8, and 24 hours. Blood samples were prepared by protein precipitation with methanol or acetonitrile containing internal standard and then measured quantitative bioanalysis by LC-MS/MS.

Cmax (I.P.): 199 ng/mL | F (I.P.): 9.3% | Terminal t1/2 (I.P.): 3.02 h | Tmax (I.P.): 0.44 h | Clearance (I.V.): 16.7 mL/min/kg | Terminal t1/2 (I.V.): 4.18 h | Vss (I.V.): 0.39 L/kg
SMILES: Nc1n[nH]c2ccc(-c3ccnc4[nH]c(-c5ccnc(OCc6ccccc6)c5)cc34)cc12 [6g SU1349, 5-(2-(2-(Benzyloxy)pyridin-4-yl)-1 H-pyrrolo[2,3-b]pyridin-4-yl)-1 H-indazol-3-amine]
